Tests used:
IKK [1] = target: T1, IKK (Homo sapiens, UniProt O14920+O15111); assay: IKK immunoprecipitation and in vitro kinase assay from treated SK-Mel-5 cells; format: cell-based; conditions: overnight (14 h) treatment, autoradiography (FIG. 2B)
T1 construct: Equal aliquots of cytoplasmic IKK proteins were immunoprecipitated with anti-IKKα/β antibodies; endogenous in cells; host or cells: SK-Mel-5 human melanoma cells, cytoplasmic extract, immunoprecipitated on Protein A/G agarose beads
Experimental: FIGS. 2A-2D. […] SK-Mel-5 cells were plated in 6-well plates (1.5×10^5 cells per well) and then cotransfected with 1 μg of HIV long terminal repeat NF-κB-luciferase vector and β-galactosidase vector DNA using Lipofectamine Plus reagent. Twenty-four hours after transfection, cells in duplicate plates were treated with 0, 0.1, 1 and 10 μM of BMS-345541in DMSO and incubated for an additional 36 h. Cell extract was prepared and luciferase activity was detected. Luciferase activity was normalized to β-galactosidase activity. […] ATP. The [γ-^32P]-labeled IκBα protein was visualized by autoradiography. […] The supernatants from B were cleared by centrifugation, or (FIG. 2D) sera were collected from mice, and subjected to ELISA assay for CXCL1 according to the manufacture's protocol. Data shown are from a representative data set from two experiments performed in duplicate (total n=4 for each point). For ELISA; the mean value is representative of serum samples from five mice.

SK-Mel-5 tumors = assay: Melanoma tumor growth in nude mice; format: in vivo; conditions: 21 days
Experimental: FIGS. 1A-1E. […] After 72 h treatment, cells were photographed. […] 2×10^6 SK-Mel-5 melanoma cells were subcutaneously inoculated into nude mice (n=5 mice per group). […] Tumor size was measured using an electronic digital caliper at intervals of 4 days. Tumor volume was calculated and statistically analyzed.
Animal experimentation was undertaken according to protocols approved by the Institutional of Animal Care and Use Committee at Vanderbilt University. […] Tumor size was measured with an electronic digital caliper. Tumor volume was calculated by width^2×length×0.52 and expressed as mean±SD mm^3.

SK-Mel-5 cells = assay: TUNEL assay of cultured cells by flow cytometry; format: cell-based, human; conditions: 36 h
Experimental: FIGS. 4A-4H. […] Paraffin-embedded tumor tissues were subjected to H&E staining (FIGS. 4C & D) and DeadEnd Fluorometric TUNEL-assay for detection of apoptosis (FIGS. 4E & F). The TUNEL-positive cells are visualized in green fluorescence in a red (Propidium Iodide) background by fluorescence microscopy. […] After 36 h incubation, cells were collected and fixed with 1% formaldehyde and 70% ice-cold ethanol. The apoptotic cells were examined using TUNEL-assay and analyzed by flow cytometry through measuring fluorescein-12-dUTP at 520 nm. The apoptotic rate is indicated in each box. Data shown are represented one of three independent experiments. […] Cells were fixed and stained with Propidium iodide. Cell fluorescence was measured by flow cytometry and the data were analyzed using DNA content histogram deconvolution software (Multicycle from Phoenix Flow Systems). The percentage of apoptotic cells with fragmented DNA (PI intensity sub-G0/G1) is indicated at each time point. The experiments were repeated twice, in duplicates for each point (total n=4).
In melanoma, constitutive activation of NF-κB confers tumor survival capacity and escape from apoptosis (Richmond, 2002). […] Apoptotic cells were labeled using DeadEnd Fluorometric TUNEL reagent and analyzed by flow cytometry. […] Thirty-six hours after transfection, cells were collected, labeled with TUNEL reagent and analyzed by flow cytometry. […] Induction of DNA fragmentation, a hallmark of apoptosis, was evaluated by staining DNA with ethidium bromide followed by quantization by FACS analysis.

[2] = system: 15 other kinases including JNK, or mitogen-activated protein kinase-activated protein kinase 2; conditions: cited from earlier work
A375 tumors = assay: Melanoma tumor growth in nude mice; format: in vivo; conditions: 75 mg/kg orally once daily, 21 days, vs vehicle
caspase-3 = assay: Caspase-3 activity assay (Ac-DEVD-pNA) in cytosol extracts; format: cell-based, human
Hs 294T tumors = assay: Melanoma tumor growth in nude mice; format: in vivo; conditions: 75 mg/kg orally once daily, 21 days, vs vehicle
IKK [3] = target: T1, IKK; assay: Cell-free IKK kinase assay with washing (reversibility); format: biochemical; conditions: immunopurified IKK, 10 μM, 20 min, washed three times
Experimental: To analyze the IKK activity, cytoplasmic extracts were prepared from cells cultured for 24 h in serum-free medium. Cells were mechanically released from tissue culture plates by scraping in cold PBS according to standard protocols. Cells were collected by centrifugation (800×g), and then resuspended in lysis buffer [10 mM HEPES (pH 7.9), 10 mM KCl, 0.1 mM EDTA, 0.1 mM EGTA, 0.1% NP40, 1 mM DTT, and 0.5 mM phenylmethylsulfonyl fluoride] with Complete Protein Inhibitors (Roche). 400 μg aliquots of cytoplasmic extracts were incubated with 1 μg each of IKKα and IKKβ polyclonal antibodies (Santa Cruz Biotechnology) and 60 μg aliquots of Protein A/G agarose-conjugated beads for 4 h at 4° C. […] The reaction mixtures were resolved by SDS-PAGE, transferred to nitrocellulose membrane, and phosphorylated IκB was detected by autoradiography.
Equal aliquots of cytoplasmic IKK proteins were immunoprecipitated with anti-IKKα/β antibodies and IKK activity was determined in an in vitro kinase assay using recombinant IκBα protein as a substrate for IκB kinase. The IKK activity was determined by autoradiography.

NF-κB/p65 = assay: Time-lapse microscopy of GFP-p65 translocation; format: cell-based, human; conditions: SK-Mel-5, 10 μM, 7 h observation
Experimental: SK-Mel-5 cells (2×10^5 ) were cultured in 25 cm^2 culture flasks (Corning Inc., Corning, N.Y.) and transfected with 0.5 μg of GFP-p65 expression vector DNA for 14 h. […] The expression and localization of EGFP-p65 in live cells was recorded using time-lapse video microscopy (FIGS. 3A). The cytosolic and nuclear green fluorescent density was quantified by the Openlab software program (FIGS. 3B).
To test this possibility, SK-Mel-5 cells were transfected with a GFP-p65 expression vector to monitor the nuclear translocation in living cells. […] Time-lapse video microscopy was used to follow the localization of GFP-p65 in live cells. Images were captured at one-hour intervals over a 7 h observation period. The cytosol versus nuclear green fluorescent density was quantified by the Openlab software program.

T1 sequence (O14920 whole entry): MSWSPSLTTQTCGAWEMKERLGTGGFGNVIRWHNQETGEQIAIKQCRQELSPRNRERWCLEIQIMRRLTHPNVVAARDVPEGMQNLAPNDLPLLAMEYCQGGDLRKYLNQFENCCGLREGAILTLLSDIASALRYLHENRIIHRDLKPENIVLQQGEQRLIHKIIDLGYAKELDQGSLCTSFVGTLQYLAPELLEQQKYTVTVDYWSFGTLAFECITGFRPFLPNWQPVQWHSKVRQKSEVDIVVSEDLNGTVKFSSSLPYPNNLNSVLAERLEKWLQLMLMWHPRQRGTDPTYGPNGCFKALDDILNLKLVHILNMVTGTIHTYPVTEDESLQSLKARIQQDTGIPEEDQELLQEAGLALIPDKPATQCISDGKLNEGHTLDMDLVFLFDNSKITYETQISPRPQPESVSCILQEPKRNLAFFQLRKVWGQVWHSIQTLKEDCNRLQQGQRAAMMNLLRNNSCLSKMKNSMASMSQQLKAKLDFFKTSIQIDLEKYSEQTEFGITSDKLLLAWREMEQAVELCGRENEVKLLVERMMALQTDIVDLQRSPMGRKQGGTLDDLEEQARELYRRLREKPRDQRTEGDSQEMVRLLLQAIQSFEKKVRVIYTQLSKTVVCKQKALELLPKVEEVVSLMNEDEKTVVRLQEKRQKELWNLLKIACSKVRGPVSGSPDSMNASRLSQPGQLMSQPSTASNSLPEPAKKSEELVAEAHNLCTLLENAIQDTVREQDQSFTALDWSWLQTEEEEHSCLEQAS
T1 sequence (O15111 whole entry): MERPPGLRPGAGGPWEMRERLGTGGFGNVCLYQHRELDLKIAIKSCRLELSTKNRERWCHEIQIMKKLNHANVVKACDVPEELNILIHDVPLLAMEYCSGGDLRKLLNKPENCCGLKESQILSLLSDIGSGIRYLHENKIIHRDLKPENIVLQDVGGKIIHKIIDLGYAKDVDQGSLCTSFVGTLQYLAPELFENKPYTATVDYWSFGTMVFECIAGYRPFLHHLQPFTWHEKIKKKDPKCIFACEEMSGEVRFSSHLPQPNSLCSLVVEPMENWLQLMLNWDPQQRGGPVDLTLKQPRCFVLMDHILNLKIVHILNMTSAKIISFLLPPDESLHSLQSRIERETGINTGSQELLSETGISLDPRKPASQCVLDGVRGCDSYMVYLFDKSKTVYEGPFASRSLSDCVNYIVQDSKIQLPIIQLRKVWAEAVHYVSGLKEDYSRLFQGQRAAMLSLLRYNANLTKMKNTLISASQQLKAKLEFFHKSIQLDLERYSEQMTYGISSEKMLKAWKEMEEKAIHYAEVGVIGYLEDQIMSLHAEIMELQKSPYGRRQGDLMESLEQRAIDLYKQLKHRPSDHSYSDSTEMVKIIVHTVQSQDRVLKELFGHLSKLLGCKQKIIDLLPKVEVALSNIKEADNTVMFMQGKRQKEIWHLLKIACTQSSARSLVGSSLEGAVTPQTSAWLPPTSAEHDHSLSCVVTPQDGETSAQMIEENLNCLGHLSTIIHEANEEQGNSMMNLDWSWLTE
T1 sequence (Q9Y6K9 whole entry partner): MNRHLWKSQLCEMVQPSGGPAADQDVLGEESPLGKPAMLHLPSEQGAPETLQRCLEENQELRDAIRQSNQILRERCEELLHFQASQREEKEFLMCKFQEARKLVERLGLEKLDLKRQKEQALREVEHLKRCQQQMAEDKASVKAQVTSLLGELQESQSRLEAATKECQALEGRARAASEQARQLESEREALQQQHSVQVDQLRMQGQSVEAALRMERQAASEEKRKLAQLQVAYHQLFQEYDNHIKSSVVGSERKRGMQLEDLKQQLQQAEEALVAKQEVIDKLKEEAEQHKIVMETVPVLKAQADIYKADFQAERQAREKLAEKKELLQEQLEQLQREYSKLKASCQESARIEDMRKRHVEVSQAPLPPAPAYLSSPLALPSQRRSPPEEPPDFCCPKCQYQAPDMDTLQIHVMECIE

With `Cc1ccc2nc(NCCN)c3ncc(C)n3c2c1.Cl` [BMS-345541, 4(2′-aminoethyl)amino-1,8-dimethylimidazo(1,2-a)quinoxaline] as the compound, how does the “IKK activity in SK-Mel-5 melanoma cells” value (IKK [1]) read?
Its value is “reduced by BMS-345541 in a concentration-dependent fashion”.

What about the “SK-Mel-5 tumor growth (FIG. 1B)” value (SK-Mel-5 tumors; 10, 25 and 75 mg/kg orally once daily) of the same compound?
Its value is “effectively inhibits SK-Mel-5 tumor growth in a dose-dependent manner”.

And the “inhibition of tumor growth” value (SK-Mel-5 tumors; SK-Mel-5 tumors, 75 mg/kg orally once daily, vs vehicle)?
The value was 86±2.8%.

What about the “increase in apoptotic cells vs vehicle (TUNEL)” value (shortened to “increase in apoptotic cells”) (SK-Mel-5 cells; SK-Mel-5, 1.0 μM) of the same compound?
The value was 2 fold.

What about the “increase in apoptotic cells” value (SK-Mel-5 cells; SK-Mel-5, 10 μM) of the same compound?
Its value is 3.3 fold.

And the “increase in apoptotic cells” value (SK-Mel-5 cells; SK-Mel-5, 100 μM)?
Its value is 4 fold.

What about the “effect on 15 other kinases” value [2] of the same compound?
Its value is “failing to affect”.

What about the “inhibition of tumor growth” value (A375 tumors) of the same compound?
The value was 69±11%.

And the “specific caspase-3 activity” value (caspase-3; SK-Mel-5, 10 μM BMS-345541, 36 h)?
Its value is 1.6±0.092 pmol/min/μg protein.

What about the “specific caspase-3 activity” value (caspase-3; SK-Mel-5, 10 μM BMS-345541 in combination with 50 μM Z-VAD-fmk, 36 h) of the same compound?
Its value is 0.44±0.035 pmol/min/μg protein.

And the “inhibition of tumor growth” value (Hs 294T tumors)?
The value was 67±3.4%.

What about the “reversibility of IKK inhibition by washing” value (IKK [3]) of the same compound?
Its value is “reversed after the washing steps”.

And the GFP-p65 localization (NF-κB/p65)?
The GFP-p65 localization was “consistently retained GFP-p65 in the cytoplasm”.
